# Activity calls are given as the source filed them.
# Key:
# Cytochrome P450 3A4 = Cytochrome P450 3A4 (Homo sapiens, UniProt P08684);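 further: CYP3A4 tested as one member of a cytochrome P450 panel screen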
# Cytochrome P450 2C19 = Cytochrome P450 2C19 (Homo sapiens, UniProt P33261); assay: Cytochrome panel assay with activity outcomes. Panel member name: p450-cyp2c19 Compounds with AC50 equal or less than 10 uM are considered active; type: functional; conditions: read-out: AC50
# [1] = target: T1, Heat shock factor protein 1 (Mus musculus, UniProt P38532); assay: enhancement of HSF1-driven luciferase signal – cell-based, NIH3T3, luminescence, dose retest, confirmation (AID 435004); type: functional;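 further: stress induced by proteasome inhibitor MG132 added 30 min after compound; luciferase reporter driven by HSF1 response element in NIH3T3 cells; actives raise luminescence as potentiators of the MG132 stress response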
# T1 sequence (P38532 whole entry): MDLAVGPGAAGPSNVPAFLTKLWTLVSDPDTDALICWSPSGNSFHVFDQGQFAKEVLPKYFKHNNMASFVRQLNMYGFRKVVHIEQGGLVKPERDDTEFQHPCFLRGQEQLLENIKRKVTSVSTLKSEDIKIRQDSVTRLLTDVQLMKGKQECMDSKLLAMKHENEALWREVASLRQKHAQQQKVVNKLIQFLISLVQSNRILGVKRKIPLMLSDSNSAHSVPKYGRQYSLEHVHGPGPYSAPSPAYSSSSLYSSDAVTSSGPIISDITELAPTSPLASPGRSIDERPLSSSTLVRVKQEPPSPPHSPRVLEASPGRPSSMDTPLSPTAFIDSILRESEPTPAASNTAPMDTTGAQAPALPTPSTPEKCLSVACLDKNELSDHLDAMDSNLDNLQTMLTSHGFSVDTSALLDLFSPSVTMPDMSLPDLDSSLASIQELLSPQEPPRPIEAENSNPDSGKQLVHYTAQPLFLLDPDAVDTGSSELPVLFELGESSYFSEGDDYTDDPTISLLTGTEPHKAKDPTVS
# Cytochrome P450 2C9 = Cytochrome P450 2C9 (Homo sapiens, UniProt P11712)
# [2] = target: T2, Corticotropin-releasing factor receptor 2/Corticotropin-releasing factor-binding protein (Homo sapiens, UniProt P24387+Q13324); assay: Dose Response confirmation of uHTS hits for small molecule antagonists of the CRF-binding protein and CRF-R2 receptor complex.; type: functional; conditions: read-out: IC50_Mean
# T2 sequence (Q13324 whole entry): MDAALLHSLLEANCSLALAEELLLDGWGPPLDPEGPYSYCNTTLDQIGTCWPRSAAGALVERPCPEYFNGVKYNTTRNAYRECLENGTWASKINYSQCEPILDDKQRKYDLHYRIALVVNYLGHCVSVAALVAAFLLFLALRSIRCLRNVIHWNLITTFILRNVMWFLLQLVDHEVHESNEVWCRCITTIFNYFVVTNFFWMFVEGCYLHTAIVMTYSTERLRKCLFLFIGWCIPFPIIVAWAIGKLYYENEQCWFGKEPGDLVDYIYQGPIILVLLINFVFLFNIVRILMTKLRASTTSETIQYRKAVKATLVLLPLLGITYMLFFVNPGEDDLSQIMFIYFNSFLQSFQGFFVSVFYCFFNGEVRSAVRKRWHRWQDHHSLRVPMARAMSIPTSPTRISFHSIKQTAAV
# T2 sequence (P24387 whole entry): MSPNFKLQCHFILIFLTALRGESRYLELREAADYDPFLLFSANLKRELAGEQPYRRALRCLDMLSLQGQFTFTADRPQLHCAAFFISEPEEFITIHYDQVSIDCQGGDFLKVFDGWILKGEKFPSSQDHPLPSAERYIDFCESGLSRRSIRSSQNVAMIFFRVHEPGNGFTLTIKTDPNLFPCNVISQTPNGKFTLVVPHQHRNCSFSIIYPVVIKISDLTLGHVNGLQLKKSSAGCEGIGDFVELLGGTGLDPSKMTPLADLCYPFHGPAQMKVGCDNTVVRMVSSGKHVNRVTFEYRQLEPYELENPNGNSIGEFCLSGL
# [3] = target: T2, Corticotropin-releasing factor receptor 2/Corticotropin-releasing factor-binding protein; assay: activators of CRF receptor 2 with binding protein – uHTS hits, confirmation (AID 602473); type: functional; conditions: read-out: EC50_Mean
# Cytochrome P450 1A2 = target: T3, Cytochrome P450 1A2 (Homo sapiens, UniProt P05177);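 further: PubChem cytochrome P450 panel assay, CYP1A2 panel member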
# T3 sequence (P05177 whole entry): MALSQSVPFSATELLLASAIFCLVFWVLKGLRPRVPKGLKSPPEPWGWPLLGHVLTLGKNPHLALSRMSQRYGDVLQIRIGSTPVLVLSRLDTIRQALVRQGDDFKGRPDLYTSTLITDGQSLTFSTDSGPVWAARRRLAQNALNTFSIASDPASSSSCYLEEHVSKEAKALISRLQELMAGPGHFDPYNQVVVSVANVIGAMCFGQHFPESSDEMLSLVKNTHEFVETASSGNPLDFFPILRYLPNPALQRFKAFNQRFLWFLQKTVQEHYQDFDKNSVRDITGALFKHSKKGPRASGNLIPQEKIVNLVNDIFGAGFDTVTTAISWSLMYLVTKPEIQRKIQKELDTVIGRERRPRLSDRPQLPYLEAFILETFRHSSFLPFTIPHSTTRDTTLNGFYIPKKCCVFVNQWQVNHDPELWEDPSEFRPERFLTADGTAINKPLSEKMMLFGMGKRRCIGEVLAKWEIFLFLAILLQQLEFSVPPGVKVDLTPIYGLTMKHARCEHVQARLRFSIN
# [4] = Luminescence Cell-Based Dose Response HTS to Identify Activators of Luciferase Translation or Activity in H4 […] Cells. [Related pubchem assays: 1829 (Project Summary), 1814 (Primary HTS)]; type: functional
# INS1 = assay: INS-1E survival protection against cytokine death – cell-based, luminescence, retest, dose response (AID 449756); type: functional; conditions: Rattus norvegicus;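 further: cell death triggered by IL-1 beta plus TNF-alpha plus IFN-gamma mixture; protective hits raise ATP signal compared with cytokine alone wells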
# [5] = Luminescence Cell-Based Dose Retest to Confirm Inhibitors of Cancer Stem Cells. [Related pubchem assays (depositor defined):AID2717, AID2721]; type: functional; conditions: Homo sapiens
# [6] = viability of uninfected HEp-2 cells – cell-based, HTS, cytotoxicity control for RSV inhibitor project, dose response (AID 2410); type: functional; conditions: human respiratory syncytial virus
# [7] = alpha-synuclein stem-loop luciferase translation blockers – H4 neuroglioma cells, luminescence, confirmation (AID 1988); type: functional, cell-based
# [8] = Luminescence Cell-Based Dose Response HTS to Identify Inhibitors of 5'UTR Stem-Loop Driven Prion Protein mRNA Translation in H4 Neuroglioblastoma Cells. [Related pubchem assays: 1827 (Project Summary), 1813 (Primary HTS)]; type: functional
# [9] = luciferase reporter signal suppression in cells – H4 neuroglioma cells, luminescence, dose response (AID 1990); type: functional, cell-based
# [10] = Trypanosoma cruzi growth suppression in host cells – NIH3T3 host cells, beta-gal luminescence, confirmation (AID 2044); type: functional, cell-based;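 further: intracellular parasites grown in NIH/3T3 mouse fibroblasts as host cells; luminescent beta-galactosidase reporter signal from transgenic T. cruzi replicating inside host cells; inhibitors lower the luminescence signal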
# [11] = NIH3T3 cell viability loss – ATP luminescence, mouse fibroblasts, counter-screen, dose response (AID 2010); type: functional, cell-based;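 further: cells exposed to compound for about 90 hours before reading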
# Sequence of Cytochrome P450 2C19 (P33261 whole entry): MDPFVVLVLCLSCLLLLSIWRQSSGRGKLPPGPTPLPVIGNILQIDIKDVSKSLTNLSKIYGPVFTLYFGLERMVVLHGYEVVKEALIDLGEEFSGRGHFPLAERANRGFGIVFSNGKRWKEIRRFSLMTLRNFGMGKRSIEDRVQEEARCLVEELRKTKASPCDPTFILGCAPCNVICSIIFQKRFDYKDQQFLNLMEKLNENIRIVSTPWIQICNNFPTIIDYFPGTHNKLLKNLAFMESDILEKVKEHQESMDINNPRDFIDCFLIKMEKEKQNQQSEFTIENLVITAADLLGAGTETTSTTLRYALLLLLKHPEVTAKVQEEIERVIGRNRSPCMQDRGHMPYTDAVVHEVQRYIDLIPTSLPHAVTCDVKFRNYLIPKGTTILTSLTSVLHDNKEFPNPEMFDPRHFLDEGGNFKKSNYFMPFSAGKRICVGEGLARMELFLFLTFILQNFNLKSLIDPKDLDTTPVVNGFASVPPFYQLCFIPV
# Sequence of Cytochrome P450 3A4 (P08684 whole entry): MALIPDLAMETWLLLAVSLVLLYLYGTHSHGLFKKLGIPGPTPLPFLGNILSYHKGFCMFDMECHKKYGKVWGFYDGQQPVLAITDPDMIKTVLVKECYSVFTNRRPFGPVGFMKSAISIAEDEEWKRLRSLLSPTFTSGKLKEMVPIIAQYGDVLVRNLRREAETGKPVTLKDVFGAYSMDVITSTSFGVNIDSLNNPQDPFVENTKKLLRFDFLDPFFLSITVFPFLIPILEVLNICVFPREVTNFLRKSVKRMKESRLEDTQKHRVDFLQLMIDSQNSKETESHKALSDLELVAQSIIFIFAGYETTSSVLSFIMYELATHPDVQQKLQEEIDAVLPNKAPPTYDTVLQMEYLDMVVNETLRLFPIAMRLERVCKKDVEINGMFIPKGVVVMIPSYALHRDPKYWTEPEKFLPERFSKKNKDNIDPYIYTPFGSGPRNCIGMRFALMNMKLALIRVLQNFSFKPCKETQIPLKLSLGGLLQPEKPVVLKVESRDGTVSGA
# Sequence of Cytochrome P450 2C9 (P11712 whole entry): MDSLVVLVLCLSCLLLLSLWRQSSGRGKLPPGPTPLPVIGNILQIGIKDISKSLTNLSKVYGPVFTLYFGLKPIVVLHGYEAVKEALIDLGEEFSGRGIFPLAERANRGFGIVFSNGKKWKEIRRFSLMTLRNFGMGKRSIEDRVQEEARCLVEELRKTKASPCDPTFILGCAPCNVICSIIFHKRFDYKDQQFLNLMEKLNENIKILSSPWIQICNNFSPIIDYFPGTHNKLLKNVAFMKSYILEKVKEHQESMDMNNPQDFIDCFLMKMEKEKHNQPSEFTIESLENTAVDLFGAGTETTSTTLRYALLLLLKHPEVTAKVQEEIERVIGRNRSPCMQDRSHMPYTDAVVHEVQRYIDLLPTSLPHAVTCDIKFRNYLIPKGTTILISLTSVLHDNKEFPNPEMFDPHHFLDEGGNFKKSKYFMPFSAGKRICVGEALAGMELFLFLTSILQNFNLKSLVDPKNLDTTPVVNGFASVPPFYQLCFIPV
smiles,measurement,setting,value
CCCn1nc(NC(=O)CC(C)C)c2cc3ccccc3nc21,AC50,Cytochrome P450 3A4,3.16 µM (inconclusive)
same,AC50,Cytochrome P450 2C19,7.94 µM (inconclusive)
COCCOC(=O)C1=C(C)N=C(C)/C(=C(/O)OCCOC)C1/C=C/c1ccccc1OC (stereo unspecified),EC50,[1],45.7 µM (active)
COc1ccc(Cl)cc1NC(=O)CCc1nc(-c2ccccc2F)no1,EC50,[1],> 260 µM (inactive)
N=c1sc2ccccc2n1CC[S-].c1ccc2c(c1)sc1[n+]2CCS1,AC50,Cytochrome P450 3A4,3.16 µM (inconclusive)
same,AC50,Cytochrome P450 2C9,1.58 µM (inconclusive)
COc1ccc(NC(=O)Nc2ccc3c(c2)OCO3)c(C)c1,IC50,[2],> 47.1 µM (inactive)
same,EC50,[3],> 53 µM (inactive)
COc1ccc(N2CCN(C(=O)CSc3nnc4c5cc(C)ccc5n(C)c4n3)CC2)cc1,AC50,Cytochrome P450 3A4,1.12 µM (inconclusive)
same,AC50,Cytochrome P450 1A2,5.62 µM (inconclusive)
same,AC50,Cytochrome P450 2C9,2.51 µM (inconclusive)
Cc1cc(NC(=O)Cn2cnc3sc(C)c(-c4ccccc4)c3c2=O)no1,EC50,[1],> 260 µM (inactive)
COc1ccccc1CC(=O)O/N=C(\N)c1cccc([N+](=O)[O-])c1,AC50,Cytochrome P450 3A4,31.6 µM (inconclusive)
same,AC50,Cytochrome P450 1A2,25.1 µM (inconclusive)
same,AC50,Cytochrome P450 2C9,22.4 µM (inconclusive)
same,AC50,Cytochrome P450 2C19,20 µM (inconclusive)
O=C(CCCN1CCC2(CC1)C(=O)N(Cc1cccc(F)c1)CN2c1ccccc1)c1ccc(F)cc1,AC50,Cytochrome P450 3A4,31.6 µM (inconclusive)
same,AC50,Cytochrome P450 1A2,39.8 µM (inconclusive)
same,AC50,Cytochrome P450 2C19,7.94 µM (inconclusive)
Cc1nnc(NC(=O)C2CCCN(c3ncccn3)C2)s1 (stereo unspecified),IC50,[2],> 47.1 µM (inactive)
same,EC50,[3],> 53 µM (inactive)
Cc1c2cnn(CC(=O)NC3CCCC3)c(=O)c2c(C)n1Cc1ccccc1,EC50,[4],51.2 µM (active)
same,IC50,[2],> 47.1 µM (inactive)
same,EC50,[3],> 53 µM (inactive)
N=c1c2c(ncn1CCCO)Oc1ccc3ccccc3c1C2c1ccccc1 (stereo unspecified),AC50,INS1,24.4 µM (active)
Cc1ccc(OCCOC(=O)Cn2nc(C)c([N+](=O)[O-])c2C)cc1,IC50,[2],> 47.1 µM (inactive)
same,EC50,[3],> 53 µM (inactive)
COCCn1c(=O)c(-c2ccc(Cl)cc2)nc2cnc(Oc3ccccc3)nc21,AC50,Cytochrome P450 3A4,25.1 µM (inconclusive)
same,AC50,Cytochrome P450 2C19,39.8 µM (inconclusive)
CN(CC1CCCO1)S(=O)(=O)c1ccc(C(=O)Nc2nc(-c3ccccn3)cs2)cc1 (stereo unspecified),AC50,INS1,2.42 µM (active)
Cc1nnc(NC(=O)c2oc3c(ccc4ccccc43)c2C)s1,AC50,Cytochrome P450 3A4,12.6 µM (inconclusive)
same,AC50,Cytochrome P450 2C9,17.8 µM (inconclusive)
CCc1ccc(-c2cc(C(F)(F)F)n3nc(C(=O)Nc4cnn(Cc5ccccc5C)c4)cc3n2)s1,AC50,Cytochrome P450 3A4,3.16 µM (inconclusive)
Cc1cccc(Cn2cc(/C=C/[N+](=O)[O-])c3ccccc32)c1,AC50,[5],3.7 µM (active)
same,CC50,[6],12.7 µM (active)
Cc1cc(C)nc(OC(=O)c2ccc(Cl)cc2Cl)n1,EC50,[7],10.9 µM (active)
same,AC50,INS1,84.3 µM (active)
same,EC50,[8],> 120 µM (not active)
same,EC50,[9],11.4 µM (active)
CCN(CCCNC(=O)COc1cc(=O)n(C)c2ccccc12)c1cccc(C)c1,EC50,[1],> 260 µM (inactive)
O=C(CSc1nnc2c(Cl)cc(C(F)(F)F)cn12)N(Cc1ccccc1)Cc1ccccc1,EC50,[1],> 260 µM (inactive)
CSc1ccc(CNc2ccccc2)cc1,AC50,Cytochrome P450 3A4,35.5 µM (inconclusive)
Cc1ccccc1Cn1nc(C)c(NC(=O)C2c3ccccc3Oc3ccccc32)c1C,EC50,[1],> 260 µM (inactive)
O=C(NC(=S)NCCc1ccccn1)c1ccco1,IC50,[2],> 47.1 µM (inactive)
same,EC50,[3],> 53 µM (inactive)
Cc1cc(O)c(C2(O)C(=O)Nc3cc(Br)ccc32)cc1C (stereo unspecified),IC50,[2],> 47.1 µM (inactive)
same,EC50,[3],> 53 µM (inactive)
COc1ccc(C2Nc3ccccc3C(=O)N2NS(=O)(=O)c2ccc(C)cc2)cc1 (stereo unspecified),EC50,[1],> 260 µM (inactive)
CC(C)(C)CC(C)(C)c1ccc(OCOCCOCCO)c(Cc2cc(C(C)(C)CC(C)(C)C)cc(Cc3cc(C(C)(C)CC(C)(C)C)ccc3OCOCCOCCO)c2OCOCCOCCO)c1,AC50,Cytochrome P450 3A4,12.6 µM (inconclusive)
O=C([O-])c1cc(-c2ccccc2)cc(-c2ccccc2)[n+]1Cc1ccccc1,AC50,INS1,1.96 µM (active)
O=C(O)CCn1[nH]c(=O)ccc1=O,EC50,[1],> 260 µM (inactive)
Cc1[nH]c2c(ccc3ccccc32)c1C1C(CCN)C1(C)C (stereo unspecified),EC50,[10],2.56 µM (active)
same,AC50,INS1,15.1 µM (active)
same,EC50,[11],13.2 µM (active)
COc1ccccc1NC(=O)Nc1nnc(-c2ccco2)s1,AC50,Cytochrome P450 3A4,17.8 µM (inconclusive)
Cc1cccc(C)c1OCC(=O)Nc1oc(-c2ccccc2)c(-c2ccccc2)c1C#N,IC50,[2],> 47.1 µM (inactive)
same,EC50,[3],> 53 µM (inactive)
CCn1c(SC)nnc1C1CCCN(CC(=O)Nc2ccccc2N2CCOCC2)C1 (stereo unspecified),EC50,[1],> 260 µM (inactive)
CCC1CCC2(CC1)SCC(=O)N2c1ccccc1 (stereo unspecified),EC50,[1],> 260 µM (inactive)
CCCSc1nnc2n(N)c(=O)c3ccccc3n12,AC50,Cytochrome P450 3A4,28.2 µM (inconclusive)
COc1ccc(-n2ncc(C(C)NS(=O)(=O)c3cc(C)sc3C)c2C)cc1 (stereo unspecified),IC50,[2],> 47.1 µM (inactive)
same,EC50,[3],> 53 µM (inactive)
Cn1c(C(=O)NCCc2ccccc2)cc(=O)n(C)c1=O,IC50,[2],> 47.1 µM (inactive)
same,EC50,[3],> 53 µM (inactive)
C=CCN1C(=O)C(Cc2ccc(OCC)cc2)S/C1=N/c1ccc(C(=O)O)cc1 (stereo unspecified),EC50,[1],> 260 µM (inactive)
Cc1c(/N=C2\SCC(=O)N2/N=C\c2ccc(Br)cc2)c(=O)n(-c2ccccc2)n1C,EC50,[1],> 260 µM (inactive)
Cc1ccc(N2C(=O)c3sc4nnc(C)c(=O)n4c3C2=O)cc1,IC50,[2],> 47.1 µM (inactive)
same,EC50,[3],> 53 µM (inactive)
CCCCCCCC/C=C\CCCCCCCC(N)=O [OLEAMIDE],AC50,Cytochrome P450 3A4,50.1 µM (inconclusive)
same,AC50,Cytochrome P450 2C19,31.6 µM (inconclusive)
COc1ccc2c(OC)c3ccoc3nc2c1OC [SKIMMIANINE],AC50,Cytochrome P450 3A4,7.94 µM (inconclusive)

# Reference: ChEMBL document CHEMBL1201862, “PubChem BioAssay data set” (2004)
